Data: patent US8633226B2, “Piperidinyl derivative as a modulator of chemokine receptor activity” (Bristol-Myers Squibb Company, priority 2008, dated 2014)

What was measured:
[1] = In vitro metabolism assay, human liver microsomes, Assay Conditions B; format: in vitro ADME; conditions: 10 min, 3 μM, pH 7.4
Description: Test compound is received as 20 mM in DMSO. Compound is diluted to create a 300 μM acetonitrile (ACN) solution containing 1.5% DMSO, which is then used as a 100× stock for incubation with microsomes. Each compound is tested in duplicate separately in each of three species in the Metabolic Stability-Human, Rat, Mouse assay suite or individual species in the Metabolic Stability-Dog or Metabolic Stability-Monkey suites. Compound, NADPH and liver microsome solutions are combined for incubation in three steps: • 1. 450 μL of liver microsome suspension, protein concentration of 1 mg/mL in 100 mM NaPi, pH. 7.4, 6.6 mM MgCl2 buffer, are pre-warmed at 37° C. • 2. 5 μl of 300 μM compound (98.5% CAN, 1.5% DMSO) is added to the same tube. • 3. The reaction is initiated by the addition of 50 μl of pre-warmed 5 mM NADPH solution in 100 mM NaPi, pH 7.4.
Reaction components are mixed well and 150 μL removed to quench/stop solution immediately for the zero-minute time point. Reactions are incubated at 37° C. for 10 minutes and then an additional 150 μL removed from incubation. Aliquots removed are combined with 300 μL ACN which contains 100 μM DMN as a UV standard for detection.
Quenched mixtures are centrifuged at 1500 rpm (˜500×g) in an Allegra X-12 centrifuge, SX4750 rotor (Beckman Coulter Inc., Fullerton, Calif.) for fifteen minutes to pellet denatured microsomes. A volume of 110 μl of supernatant extract, containing the mixture of parent compound and its metabolites, is then transferred to a separate 96-well plate for UV-LC/MS-MS analysis to determine the percent of parent compound that is remaining in the mixture.

Human CCR1 = Human CCR1 (Homo sapiens (Human), UniProt P32246); experiment: Human CCR1 THP-1 binding assay; conditions: [125I]-MIP-1α competition, THP-1 cells
Sequence of Human CCR1 (P32246 whole entry): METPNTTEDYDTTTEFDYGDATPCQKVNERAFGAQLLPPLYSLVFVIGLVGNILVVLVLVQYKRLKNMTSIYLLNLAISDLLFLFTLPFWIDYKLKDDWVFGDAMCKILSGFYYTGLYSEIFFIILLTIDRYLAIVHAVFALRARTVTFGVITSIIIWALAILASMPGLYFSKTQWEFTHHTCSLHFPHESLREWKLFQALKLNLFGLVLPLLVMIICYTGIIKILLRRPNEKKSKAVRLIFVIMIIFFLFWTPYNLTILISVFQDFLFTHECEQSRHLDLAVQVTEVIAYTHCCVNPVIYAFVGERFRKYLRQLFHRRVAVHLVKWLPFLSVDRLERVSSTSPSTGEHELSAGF
Description: For radioligand competition studies, a final concentration of 1×10^5 THP-1 monocytic leukemia cells are combined with 100 μg of LS WGA PS beads (Amersham, Cat.#: RPNQ 0260) in 40 μL of assay buffer (RPMI 1640 without phenol red, 50 mM HEPES, 5 mM MgCl2, 1 mM CaCl2, 0.1% BSA). The THP-1 cell/bead mixture was added to each well of a 384-well assay plate (PerkinElmer, Cat. #:6007899) containing test compound in 3-fold serial dilution, with final concentrations ranging from 8 μM to 0.14 nM. A final concentration of 0.1 nM [^125I]-MIP-1α (PerkinElmer, Cat. #NEX298) in 20 μL assay buffer was added to the reaction. Unlabeled MIP-1α was added in excess to some wells to determine non-specific binding. Sealed assay plates were incubated at room temperature for 12 h then analyzed by LEADseeker™.
The competition data of the test compound over a range of concentrations is plotted as percentage inhibition of radioligand specifically bound in the absence of test compound (percent of total signal). After correcting for non-specific binding, IC50 values are determined. The IC50 value is defined as the concentration of test compound needed to reduce [^125I]-MIP-1α specific binding by 50% and is calculated using the four parameter logistic equation to fit the normalized data. The Ki values are determined by application of the Cheng-Prusoff equation to the IC50 values, where Ki=IC50/(1+ligand concentration/Kd). The Kd of [^125I]-MIP-1α in THP-1 cells is 0.1 nM. Each experiment was run in duplicate.

| SMILES | Human Liver Microsomal Metabolism % remaining (Assay Conditions B) [1] | Ki (Human CCR1) [nM] |
| --- | --- | --- |
| CC(C)CC(=O)N[C@@H](C(=O)N1CC[C@](O)(c2ccc(Cl)cc2)C(C)(C)C1)C(C)C [#466] | 33% | 2.6 |
| CC(C)[C@@H](NC(=O)C1CCCC1)C(=O)N1CC[C@](O)(c2ccc(Cl)cc2)C(C)(C)C1 [#460] | 16% | 0.7 |
| CC(C)[C@@H](NC(=O)CC(C)(C)O)C(=O)N1CC[C@](O)(c2ccc(Cl)cc2)C(C)(C)C1 [#1356] | 100% (A)/100% (B) | 3.7 |
| CC(C)[C@@H](NC(=O)NCC(C)(C)O)C(=O)N1CC[C@](O)(c2ccc(Cl)cc2)C(C)(C)C1 [Compound I] | 100% (B) | 0.7 |
